Laboratory results: US20120202690A1, “HERBICIDAL COMPOUNDS” (SYNGENTA LIMITED, priority 2009, published 2012)

How the values were obtained:
Type in all cases: in vivo
[1] = tested on: Alopecurus myosuroides (ALOMY); assay: Pre-emergence biological efficacy, glasshouse, 1000 g/ha, evaluated after 13 days (100=total damage to plant; 0=no damage to plant); conditions: Alopecurus myosuroides, 312 h, rate 1,000 g/ha, read-out: Percentage damage caused to weed species, pre-emergence, ALOMY
Procedure, shortened: (§1)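 Sowing: standard soil, pots. Growth: glasshouse, 24/16° C. day/night, 14 hours light, 65% humidity. Watering: twice daily.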

[2] = tested on: Amaranthus retroflexus (AMARE); assay: as above; conditions: Amaranthus retroflexus, 312 h, rate 1,000 g/ha, read-out: Percentage damage caused to weed species, pre-emergence, AMARE
Procedure, shortened: as §1

[3] = tested on: Echinochloa crus-galli (ECHCG); assay: as above; conditions: Echinochloa crus-galli, 312 h, rate 1,000 g/ha, read-out: Percentage damage caused to weed species, pre-emergence, ECHCG
Procedure, shortened: as §1

[4] = tested on: Ipomoea hederaceae (IPOHE); assay: as above; conditions: Ipomoea, 312 h, rate 1,000 g/ha, read-out: Percentage damage caused to weed species, pre-emergence, IPOHE
Procedure, shortened: as §1

Setaria faberi (SETFA) [5] = assay: as above; conditions: Setaria faberi, 312 h, rate 1,000 g/ha, read-out: Percentage damage caused to weed species, pre-emergence, SETFA
Procedure, shortened: as §1

Solanum nigrum (SOLNI) [6] = assay: as above; conditions: Solanum nigrum, 312 h, rate 1,000 g/ha, read-out: Percentage damage caused to weed species, pre-emergence, SOLNI
Procedure, shortened: as §1

[7] = tested on: Alopecurus myosuroides (ALOMY); assay: Post-emergence biological efficacy, glasshouse, 500 or 1000 g/ha, evaluated after 13 days (100=total damage to plant; 0=no damage to plant); conditions: Alopecurus myosuroides, 312 h, rate 1,000 g/ha, read-out: Percentage damage caused to weed species, post-emergence, ALOMY
Procedure, shortened: (§2)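 Sow seeds in standard potting soil. Treat after emergence. Keep treated plants in the glasshouse at 24° C. by day and 16° C. by night, with a 14-hour photoperiod, 65% humidity and two waterings daily.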

[8] = tested on: Amaranthus retroflexus (AMARE); assay: as above; conditions: Amaranthus retroflexus, 312 h, rate 1,000 g/ha, read-out: Percentage damage caused to weed species, post-emergence, AMARE
Procedure, shortened: as §2

[9] = tested on: Echinochloa crusgaffi (ECHCG); assay: as above; conditions: Echinochloa, 312 h, rate 1,000 g/ha, read-out: Percentage damage caused to weed species, post-emergence, ECHCG
Procedure, shortened: as §2

[10] = tested on: Ipomoea hederaceae (IPOHE); assay: as above; conditions: Ipomoea, 312 h, rate 1,000 g/ha, read-out: Percentage damage caused to weed species, post-emergence, IPOHE
Procedure, shortened: as §2

Setaria faberi (SETFA) [11] = assay: as above; conditions: Setaria faberi, 312 h, rate 1,000 g/ha, read-out: Percentage damage caused to weed species, post-emergence, SETFA
Procedure, shortened: as §2

Solanum nigrum (SOLNI) [12] = assay: as above; conditions: Solanum nigrum, 312 h, rate 1,000 g/ha, read-out: Percentage damage caused to weed species, post-emergence, SOLNI
Procedure, shortened: as §2

Compound	pest or weed control at 1000 g/ha [1] [%]	pest or weed control at 1000 g/ha [2] [%]	pest or weed control at 1000 g/ha [3] [%]	pest or weed control at 1000 g/ha [4] [%]	pest or weed control at 1000 g/ha (Setaria faberi (SETFA) [5]) [%]	pest or weed control at 1000 g/ha (Solanum nigrum (SOLNI) [6]) [%]	pest or weed control at 1000 g/ha [7] [%]	pest or weed control at 1000 g/ha [8] [%]	pest or weed control at 1000 g/ha [9] [%]	pest or weed control at 1000 g/ha [10] [%]	pest or weed control at 1000 g/ha (Setaria faberi (SETFA) [11]) [%]	pest or weed control at 1000 g/ha (Solanum nigrum (SOLNI) [12]) [%]
COC(=O)c1nc(C2CC2)nc2c1NC(c1ccccc1)C(c1ccccc1)N2 (stereo not drawn) [Compound 91-44, 2-cyclopropyl-6,7-diphenyl-4-methoxycarbonyl-5,6,7,8-tetrahydropteridine]	30	70	10	20	0	30	20	70	50	60	50	90
COC(=O)c1nc(-c2ccc(Cl)c(OC)c2F)nc2c1NC(C)C(C)N2 (stereo not drawn) [Compound 91-184, 2-(4-Chloro-2-fluoro-3-methoxyphenyl)-6,7-dimethyl-4-methoxy-carbonyl-5,6,7,8-tetrahydropteridine]	0	0	0	0	0	0	0	20	30	70	0	50
COc1c(Cl)ccc(-c2nc3c(c(C(=O)O)n2)NC(c2ccccc2)C(c2ccccc2)N3)c1F (stereo not drawn) [Compound 91-203, 4-Carboxy-2-(4-chloro-2-fluoro-3-methoxyphenyl)-6,7-diphenyl-5,6,7,8-tetrahydropteridine]	0	0	0	10	0	20	0	10	0	10	10	40
COC(=O)c1nc(-c2ccc(Cl)c(OC)c2F)nc2c1NC(c1ccccc1)C(c1ccccc1)N2 (stereo not drawn) [Compound 91-204, 2-(4-Chloro-2-fluoro-3-methoxyphenyl)-6,7-diphenyl-4-methoxycarbonyl-5,6,7,8-tetrahydropteridine]	0	20	0	0	0	10	0	50	0	40	0	80
COc1c(Cl)ccc(-c2nc3c(c(C(=O)O)n2)N[C@@H]2CCCC[C@H]2N3)c1F [Compound 91-207, (5aR,9aR)-4-Carboxy-2-(4-chloro-2-fluoro-3-methoxyphenyl)-5,5a,6,7,8,9,9a,10-octahydro-benzo[g]pteridine]	0	20	0	0	10	10	0	20	0	60	0	70
